This note sets out measurements from patent US9980943B2, “Methods of treating muscular dystrophy” (BOARD OF REGENTS OF THE NEVADA SYSTEM OF HIGHER EDUCATION, …, priority 2013, dated 2018).

Holding throughout (type): cell-based, mouse
Assay [1] has as its system β-galactosidase in CMV-LacZ C2C12 myoblasts. The experiment in a line: CMV-LacZ secondary screen in C2C12 myoblasts (β-Gal stabilizing assay). Particulars: CMV-LacZ C2C12 myoblasts. In short, it runs like this:
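First, C2C12 myoblasts were transfected with a linearized CMV-LACZ vector and clonal lines selected by FDG β-gal assay. Then cells were exposed to compounds at 0.5, 1, 5, 10, 20 and 40 μM in 96-well format, two replicates each, and β-gal measured.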

Assay [2] relates to α7 integrin (LacZ reporter in α7+/LacZ myotubes). The experiment in a line: Myotube α7 integrin FDG assay (Burkin assay in myotubes, 96-well). As to conditions: myotubes.
Assay [3] has as its system β-galactosidase in CMV-LacZ C2C12 myotubes. The experiment in a line: CMV-LacZ secondary screen in C2C12 myotubes (β-Gal stabilizing assay). Particulars: C2C12 CMV-LacZ myotubes, fold relative to DMSO. Summed up: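 CMV-LacZ C2C12 line (clonal, FDG-screened); myoblasts/myotubes dosed 0.5–40 μM (0.5, 1, 5, 10, 20, 40 μM); n=2 per point; β-gal stabilization read-out.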
The subject of assay [4] is α7 integrin (LacZ reporter in α7βgal+/− myoblasts). The experiment in a line: Myoblast α7+/LacZ integrin FDG assay (Burkin assay in myoblasts, 96-well). As to conditions: α7+/LacZ myoblasts, 96-well.

As for `Cc1[nH]c(=O)[nH]c(=O)c1S(=O)(=O)Nc1ccc(F)cc1Cl` [MLS001200149-01], the “CMV-LACZ in Myoblasts (β-galactosidase activity relative to DMSO)” value in assay [1] (0.5 uM) amounted to 1.1234; in assay [1] (1 uM), 0.9203; in assay [1] (5 uM), 0.9489; in assay [1] (10 uM), 1.0523; in assay [1] (20 uM), 0.9363; in assay [1] (40 uM), 1.1552. Also, the “Burkin Assay in Myotubes, α7 integrin LacZ reporter signal relative to DMSO” value in assay [2] (0.5 uM) came to 1.26; in assay [2] (1 uM), 1.072; in assay [2] (5 uM) it was 1.069; in assay [2] (10 uM), 1.094; in assay [2] (20 uM) it was 0.9286; in assay [2] (40 uM) it was 0.8363. Further, the “CMV-LACZ in Myotubes, signal relative to DMSO” value in assay [3] (0.5 uM) is 0.8378; in assay [3] (1 uM), 0.9933; in assay [3] (5 uM), 0.9974; in assay [3] (10 uM), 0.8176; in assay [3] (20 uM), 0.8318; in assay [3] (40 uM), 0.9424. Also, the “Burkin Assay in Myoblasts, signal relative to DMSO” value in assay [4] (0.5 uM) is given as 1.039; in assay [4] (1 uM) it was 1.156; in assay [4] (5 uM), 1.0782; in assay [4] (10 uM), 0.998; in assay [4] (20 uM), 1.021; in assay [4] (40 uM), 0.9876.
Take `N/C(=N\OC(=O)c1cccc(C(F)(F)F)c1)c1cnccn1` [MLS001098105-01]: the “CMV-LACZ in Myoblasts (β-galactosidase activity relative to DMSO)” value in assay [1] (0.5 uM) stood at 1.4689; in assay [1] (1 uM), 0.8054; in assay [1] (5 uM), 0.9282; in assay [1] (10 uM) it was 0.9421; in assay [1] (20 uM), 1.0381; in assay [1] (40 uM) it was 0.8704. In addition, the “Burkin Assay in Myotubes, α7 integrin LacZ reporter signal relative to DMSO” value is reported as 1.052 in assay [2] (0.5 uM); 1.053 in assay [2] (1 uM); 0.916 in assay [2] (5 uM); 0.8354 in assay [2] (10 uM); 0.8142 in assay [2] (20 uM); 0.8459 in assay [2] (40 uM). The “CMV-LACZ in Myotubes, signal relative to DMSO” value in assay [3] (0.5 uM) came out at 0.9248; in assay [3] (1 uM) it was 1.2543; in assay [3] (5 uM) it was 0.9211; in assay [3] (10 uM), 1.3183; in assay [3] (20 uM), 0.9671; in assay [3] (40 uM) it was 1.2553. The “Burkin Assay in Myoblasts, signal relative to DMSO” value in assay [4] (0.5 uM) is recorded as 0.9449; in assay [4] (1 uM) it was 1.029; in assay [4] (5 uM), 0.9936; in assay [4] (10 uM), 0.974; in assay [4] (20 uM) it was 1.075; in assay [4] (40 uM), 1.135.
